Test results taken from ChEMBL document CHEMBL1148596, “Discovery of nonpeptidic small-molecule AP-1 inhibitors: lead hopping based on a three-dimensional pharmacophore model” (J Med Chem, 2006).

Experiments:
[1] = target: T1, Transcription factor AP1 (Homo sapiens, UniProt P05412+P01100); experiment: (§1) Inhibitory activity on AP1 using ELISA based AP1 DNA binding; assay type: protein-complex assay
[2] = target: T1, Transcription factor AP1; experiment: (§2) Inhibition of the expression of AP1-luciferase by TPA-stimulated NIH3T3 cells; assay type: cell-based; settings: nih3t3
[3] = target: T2, Transcription factor AP1 (Homo sapiens, UniProt P01100+P05412); experiment: as §1; assay type: protein-complex assay
T2 sequence (P05412 whole entry): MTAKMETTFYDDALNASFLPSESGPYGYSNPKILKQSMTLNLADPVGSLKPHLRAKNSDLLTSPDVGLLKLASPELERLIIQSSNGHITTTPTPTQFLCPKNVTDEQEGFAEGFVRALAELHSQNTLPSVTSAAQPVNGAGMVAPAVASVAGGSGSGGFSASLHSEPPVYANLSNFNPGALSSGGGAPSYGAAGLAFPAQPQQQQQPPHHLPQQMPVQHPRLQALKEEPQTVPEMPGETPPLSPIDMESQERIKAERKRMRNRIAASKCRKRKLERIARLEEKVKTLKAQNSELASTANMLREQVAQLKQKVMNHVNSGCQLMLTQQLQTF
T2 sequence (P01100 whole entry): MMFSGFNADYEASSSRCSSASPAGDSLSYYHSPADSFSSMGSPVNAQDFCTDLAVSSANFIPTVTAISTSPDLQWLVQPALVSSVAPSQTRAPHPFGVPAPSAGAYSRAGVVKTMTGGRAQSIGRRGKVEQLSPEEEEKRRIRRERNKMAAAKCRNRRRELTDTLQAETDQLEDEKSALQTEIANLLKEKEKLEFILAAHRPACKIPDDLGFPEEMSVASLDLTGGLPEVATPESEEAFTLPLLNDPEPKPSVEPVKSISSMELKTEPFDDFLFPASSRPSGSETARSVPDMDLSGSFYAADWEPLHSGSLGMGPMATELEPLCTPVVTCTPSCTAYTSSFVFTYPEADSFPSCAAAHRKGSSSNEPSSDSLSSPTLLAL

[4] = target: T1, Transcription factor AP1; experiment: Inhibitory activity on AP1 DNA-binding at 500 uM; assay type: protein-complex assay
[5] = target: T1, Transcription factor AP1; experiment: Inhibitory activity on AP1 DNA-binding at 1 mM; assay type: protein-complex assay
[6] = target: T2, Transcription factor AP1; experiment: as §2; assay type: cell-based

T1 sequence (P05412 whole entry): as the sequence (P05412 whole entry) above
T1 sequence (P01100 whole entry): as the sequence (P01100 whole entry) above

Compound	IC50 [1]	IC50 [2]	IC50 [3]	inhibition [4]	inhibition [5]	IC50 [6]
CC(C)CC=C1CCC2(CC1)SC[C@@H](C(=O)O)N2C(=O)CCCC(C)C (stereo partly drawn)	460 µM	13.3 µM	–	–	–	–
CC(C)COc1cccc(C(=O)c2ccc(OCC(C)C)c(CCC(=O)O)c2)c1	–	–	600 µM	–	–	5.8 µM
CCCOc1ccc(C(=O)c2ccc(OCC(C)C)cc2)cc1CCC(=O)O	–	–	910 µM	26%	55%	–
CC(C)COc1ccc(C(=O)c2cccc(CCC(=O)O)c2)cc1	–	–	> 2000 µM	10%	14%	–
CC(C)COc1ccc(C(=O)c2ccc(OCC(C)C)c(CCC(N)=O)c2)cc1	–	–	–	5%	–	–

The next lines start with the values.

IC50 [1]	IC50 [2]	IC50 [3]	inhibition [4]	inhibition [5]	IC50 [6]	Compound
–	–	> 2000 µM	7%	9%	–	CC(C)COc1ccc(C(=O)c2ccccc2)cc1CCC(=O)O
650 µM	11.8 µM	–	–	–	–	CC(C)CCC=C1CCC2(CC1)SC[C@@H](C(=O)O)N2C(=O)CCC(C)C (stereo partly drawn)
–	–	610 µM	28%	91%	5 µM	CC(C)COc1ccc(C(=O)c2ccc(OCC(C)C)c(CCC(=O)O)c2)cc1
–	–	420 µM	51%	97%	–	CC(C)COc1ccc(C(=O)c2ccc(OCc3ccccc3)c(CCC(=O)O)c2)cc1
–	–	930 µM	25%	42%	–	CCCOc1ccc(C(=O)c2ccc(OCC(C)C)c(CCC(=O)O)c2)cc1
–	–	–	45%	–	–	CC(C)COc1ccc(C(=O)c2ccc(OCc3ccccc3)cc2)cc1CCC(=O)O
–	–	–	3%	–	–	CC(C)COc1ccc(C(=O)c2ccc(OCC(C)C)cc2)cc1
